Results on 34 compounds are retold here after patent US20260258064A1 (SIRONAX LTD., priority 2023, published 2026).

Bounds are passed on as bounds.

This test concerns the target T1, SARM1 (50-724) (Homo sapiens, UniProt Q6SZW1).
T1 construct: Purified SARM1 (50-724) with a final concentration of 2 nM was pre-incubated with a test compound
T1 sequence (Q6SZW1 50-724): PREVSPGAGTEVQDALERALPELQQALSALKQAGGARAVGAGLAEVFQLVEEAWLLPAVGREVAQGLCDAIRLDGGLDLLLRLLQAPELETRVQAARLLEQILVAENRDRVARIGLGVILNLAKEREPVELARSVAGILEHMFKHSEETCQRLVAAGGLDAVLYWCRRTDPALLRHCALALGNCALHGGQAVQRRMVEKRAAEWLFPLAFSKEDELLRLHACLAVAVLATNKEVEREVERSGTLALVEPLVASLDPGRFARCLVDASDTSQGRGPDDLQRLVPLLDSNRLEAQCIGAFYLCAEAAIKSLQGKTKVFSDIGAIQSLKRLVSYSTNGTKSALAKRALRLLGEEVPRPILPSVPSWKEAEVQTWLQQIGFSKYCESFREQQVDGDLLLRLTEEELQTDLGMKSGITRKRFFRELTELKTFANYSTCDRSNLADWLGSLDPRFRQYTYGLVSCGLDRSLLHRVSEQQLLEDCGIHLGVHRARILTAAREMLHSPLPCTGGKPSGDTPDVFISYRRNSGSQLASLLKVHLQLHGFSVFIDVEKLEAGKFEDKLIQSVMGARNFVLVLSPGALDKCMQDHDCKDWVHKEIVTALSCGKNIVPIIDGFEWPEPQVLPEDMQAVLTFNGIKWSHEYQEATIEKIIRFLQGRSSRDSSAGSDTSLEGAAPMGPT
Briefly: SARM1 (50-724) enzymatic assay (LC-MS/MS). It counts as biochemical. Particulars: Purified SARM1 (50-724) 2 nM, NMN as activator, NAD+ as substrate, 1 h at room temperature, read-out: IC50 (SARM1 inhibitory activity). The method, boiled down: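 Human SARM1 (50-724), 2 nM, pre-incubated 15 min at room temperature with compound in Dulbecco's PBS. Reaction started with 200 µM NMN (activator) plus […] NAD^+ substrate, run 1 h at room temperature, quenched with 70% acetonitrile. Turnover quantified by LC-MS/MS; IC50 reported.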
As for `Fc1cccc(-n2c(Cn3cccn3)nnc2-c2nc3cc(C(F)(F)F)ccc3[nH]2)c1Cl` [Compound 381, 2-(5-((1H-pyrazol-1-yl)methyl)-4-(2-chloro-3-fluorophenyl)-4H-1,2,4-triazol-3-yl)-5-(trifluoromethyl)-1H-benzo[d]imidazole], the IC50 (usually the concentration that inhibits the measured activity by half) was in the range of 0.1 to 0.5 µM.

As for `Fc1cc(C2CC2COC(F)F)cc2nc(-c3nncn3-c3cnccc3C(F)(F)F)[nH]c12` (stereo not shown) [Compound 440, 5-(2-((difluoromethoxy)methyl)cyclopropyl)-7-fluoro-2-(4-(4-(trifluoromethyl)-pyridin-3-yl)-4H-1,2,4-triazol-3-yl)-1H-benzo[d]imidazole], the IC50 is at most 0.1 µM.

In the case of `FC(F)(F)c1ccc2[nH]c(-c3nncn3-c3cccc4nccn34)nc2c1` [Example 62], the IC50 is above 1 µM.

On to `FC(F)(F)c1ccc2[nH]c(-c3nncn3-c3cnccc3C(F)(F)F)c(-c3ccco3)c2c1` [Compound 376, 3-(2-furyl)-5-(trifluoromethyl)-2-[4-[4-(trifluoromethyl)-3-pyridyl]-1,2,4-triazol-3-yl]-1H-indole], for which the IC50 was at most 0.1 µM.

For `Cc1nsc(Cl)c1-n1cnnc1-c1nc2cc(C(F)(F)F)ccc2[nH]1` [Example 118], the IC50 is at most 0.1 µM.

In the case of `CC1(c2ccc3[nH]c(-c4nncn4-c4cccc(Cl)c4Cl)nc3c2)CCO1` (stereo not shown) [Compound 154, 2-(4-(2,3-dichlorophenyl)-4H-1,2,4-triazol-3-yl)-5-(2-methyloxetan-2-yl)-1H-benzo[d]imidazole], the IC50 is at most 0.1 µM.

For `Cn1cc(-c2nc(Cl)c(Cl)s2)c(-c2nc3cc(C(F)(F)F)ccc3[nH]2)cc1=O` [Compound 97], the IC50 was above 1 µM.

As for `OCCc1cc(-n2cnnc2-c2nc3cc(C(F)(F)F)ccc3[nH]2)c(OC(F)(F)F)cn1` [Compound 265], the IC50 was at most 0.1 µM.

`CS(=O)(=O)Cc1nnc(-c2nc3cc(C(F)(F)F)cc(F)c3[nH]2)n1-c1cccc(Cl)c1Cl` [Compound 185, 2-(4-(2,3-dichlorophenyl)-5-((methylsulfonyl)methyl)-4H-1,2,4-triazol-3-yl)-4-fluoro-6-(trifluoromethyl)-1H-benzo[d]imidazole]: the IC50 is at most 0.1 µM.

In the case of `Cc1ccc2[nH]c(C3CCCN3c3cccc(Cl)c3Cl)nc2c1` (stereo not shown) [Compound 13, 2-(1-(2,3-Dichlorophenyl)pyrrolidin-2-yl)-5-methyl-1H-benzo[d]imidazole], the concentration for half-maximal inhibition (IC50) was above 1 µM.

On to `Cc1cnn(C)c1-c1ccc2[nH]c(-c3nncn3-c3cccc(Cl)c3Cl)nc2c1` [Example 81, 2-(4-(2,3-dichlorophenyl)-4H-1,2,4-triazol-3-yl)-5-(1,4-dimethyl-1H-pyrazol-5-yl)-1H-benzo[d]imidazole], for which the IC50 was in the range of 0.1 to 0.5 µM.

`Fc1cc(C23COCC2C3)cc2nc(-c3nncn3-c3cnccc3C(F)(F)F)[nH]c12` (stereo not shown) [Compound 374]: the IC50 was at most 0.1 µM.

Regarding `FC(F)(F)c1ccc2[nH]c(-c3cncnc3-c3cccc(Cl)c3Cl)nc2c1` [Example 38], the IC50 was 0.1 to 0.5 µM.

On to `Fc1c(C2CC2)cc(F)c2[nH]c(-c3nncn3-c3cnccc3C(F)(F)F)nc12` [Compound 300, 5-cyclopropyl-4,7-difluoro-2-(4-(4-(trifluoromethyl)pyridin-3-yl)-4H-1,2,4-triazol-3-yl)-1H-benzo[d]imidazole], for which the half-maximal inhibitory concentration (IC50) was at most 0.1 µM.

On to `FC(F)(F)c1ccc2[nH]c(-c3nncn3-c3nnccc3C(F)(F)F)nc2c1` [Compound 429, 5-(trifluoromethyl)-2-(4-(4-(trifluoromethyl)pyridazin-3-yl)-4H-1,2,4-triazol-3-yl)-1H-benzo[d]imidazole], for which the IC50 was at most 0.1 µM.

Consider `Cn1cc(-c2cccc(Cl)c2Cl)c(-c2nc3cc(C(F)(F)F)ccc3[nH]2)cc1=O` [Example 48], for which the IC50 is at most 0.1 µM.

In the case of `O=c1[nH]ccc(-c2cccc(Cl)c2Cl)c1-c1nc2cc(C(F)(F)F)ccc2[nH]1` [Example 35], the IC50 lay in the range of 0.1 to 0.5 µM.

In the case of `CCC(c1ccc2[nH]c(-c3nncn3-c3ccncc3OC(F)(F)F)nc2c1)C(F)F` (stereo not shown) [Compound 238, 5-(1,1-difluorobutan-2-yl)-2-(4-(3-(trifluoromethoxy)pyridin-4-yl)-4H-1,2,4-triazol-3-yl)-1H-benzo[d]imidazole], the IC50 was at most 0.1 µM.

`Cc1ccc2[nH]c(-c3nncn3-c3cccc(Cl)c3Cl)nc2c1C` [Example 93, 2-(4-(2,3-dichlorophenyl)-4H-1,2,4-triazol-3-yl)-4,5-dimethyl-1H-benzo[d]imidazole]: the IC50 was at most 0.1 µM.

In the case of `Fc1c(CC(F)F)cc(F)c2[nH]c(-c3nncn3-c3cnccc3C(F)(F)F)nc12` [Compound 329, 5-(2,2-difluoroethyl)-4,7-difluoro-2-[4-[4-(trifluoromethyl)-3-pyridyl]-1,2,4-triazol-3-yl]-1H-benzimidazole], the IC50 is at most 0.1 µM.

Take `Fc1cc(C2(c3nccs3)CC2)cc2nc(-c3nncn3-c3cnccc3C(F)(F)F)[nH]c12` [Compound 422, 2-[1-[7-fluoro-2-[4-[4-(trifluoromethyl)-3-pyridyl]-1,2,4-triazol-3-yl]-1H-benzimidazol-5-yl]cyclopropyl]thiazole]: the IC50 was at most 0.1 µM.

For `CC(c1cc(F)c2[nH]c(-c3nncn3-c3cnccc3C(F)(F)F)nc2c1)C(F)(F)F` (stereo not shown) [Compound 278, 7-fluoro-2-(4-(4-(trifluoromethyl)pyridin-3-yl)-4H-1,2,4-triazol-3-yl)-5-(1,1,1-trifluoropropan-2-yl)-1H-benzo[d]imidazole], the IC50 was at most 0.1 µM.

Turning to `N#Cc1c(-c2cnccc2-c2cccc(Cl)c2Cl)[nH]c2ccc(C(F)(F)F)cc12` [Example 47, 2-(4-(2,3-dichlorophenyl)pyridin-3-yl)-5-(trifluoromethyl)-1H-indole-3-carbonitrile], the IC50 is at most 0.1 µM.

In the case of `CC(c1ccncc1)c1cc(F)c2[nH]c(-c3nncn3-c3cccc(F)c3Br)nc2c1` (stereo not shown) [Compound 462, 2-(4-(2-bromo-3-fluorophenyl)-4H-1,2,4-triazol-3-yl)-7-fluoro-5-(1-(pyridin-4-yl)ethyl)-1H-benzo[d]imidazole], the 50% inhibitory concentration (IC50) was at most 0.1 µM.

As for `Cc1ccc2[nH]c(-c3ncnn3C3CCCC3)nc2c1` [Compound 10, 2-(2-cyclopentyl-1,2,4-triazol-3-yl)-5-methyl-1H-benzimidazole], the IC50 was above 1 µM.

Consider `Fc1cc(C(F)(F)F)cc2nc(-c3nncn3-c3cc(Cl)ncc3OC(F)(F)F)[nH]c12` [Compound 218, 2-(4-(2-chloro-5-(trifluoromethoxy)pyridin-4-yl)-4H-1,2,4-triazol-3-yl)-7-fluoro-5-(trifluoromethyl)-1H-benzo[d]imidazole], for which the IC50 is at most 0.1 µM.

Take `CS(=O)(=O)CCOc1ccc(OC(F)(F)F)c(-n2cnnc2-c2nc3cc(C(F)(F)F)ccc3[nH]2)n1` [Compound 267]: the IC50 was at most 0.1 µM.

For `CC(C)(C)Oc1cnccc1-n1cnnc1-c1nc2cc(C(F)(F)F)ccc2[nH]1` [Compound 219, 2-(4-(3-(tert-butoxy)pyridin-4-yl)-4H-1,2,4-triazol-3-yl)-5-(trifluoromethyl)-1H-benzo[d]imidazole], the half-inhibitory concentration (IC50) is 0.1 to 0.5 µM.

As to `O=S1(=O)Cc2ccc3[nH]c(-c4nncn4-c4cccc(F)c4Cl)nc3c2C1` [Compound 198, 2-(4-(2-chloro-3-fluorophenyl)-4H-1,2,4-triazol-3-yl)-6,8-dihydro-3H-thieno[3',4':3,4]benzo[1,2-d]imidazole 7,7-dioxide], the IC50 was above 1 µM.

Turning to `CC1(O)CC(Cc2nnc(-c3nc4cc(C(F)(F)F)ccc4[nH]3)n2-c2cccc(F)c2Cl)C1` (stereo not shown) [Compound 421, 3-((4-(2-chloro-3-fluorophenyl)-5-(5-(trifluoromethyl)-1H-benzo[d]imidazol-2-yl)-4H-1,2,4-triazol-3-yl)methyl)-1-methylcyclobutan-1-ol], the IC50 is at most 0.1 µM.

`C=C(CF)c1cc(F)c2[nH]c(-c3nncn3-c3cnccc3C(F)(F)F)nc2c1` [Compound 286, 7-fluoro-5-(3-fluoroprop-1-en-2-yl)-2-(4-(4-(trifluoromethyl)pyridin-3-yl)-4H-1,2,4-triazol-3-yl)-1H-benzo[d]imidazole]: the IC50 was at most 0.1 µM.

Turning to `CS(=O)(=O)c1c(Br)ccc2[nH]c(-c3nncn3-c3cccc(Cl)c3Cl)nc12` [Example 95, 5-bromo-2-(4-(2,3-dichlorophenyl)-4H-1,2,4-triazol-3-yl)-4-(methylsulfonyl)-1H-benzo[d]imidazole], the IC50 was above 1 µM.

As for `Cc1ccc2[nH]c(C3=C(C4CCCC4)COC3=O)nc2c1` [Compound 9, 4-Cyclopentyl-3-(5-methyl-1H-benzo[d]imidazol-2-yl)furan-2(5H)-one], the IC50 is above 1 µM.

`O=c1cc(-n2cnnc2-c2cc3cc(C(F)(F)F)cc(F)c3[nH]2)c(OC(F)(F)F)cn1CCO` [Compound 410, 4-(3-(7-fluoro-5-(trifluoromethyl)-1H-indol-2-yl)-4H-1,2,4-triazol-4-yl)-1-(2-hydroxyethyl)-5-(trifluoromethoxy)pyridin-2(1H)-one]: the concentration for half-maximal inhibition (IC50) was at most 0.1 µM.
